Here are results for 13 compounds from US20260015358A1, “BICYCLIC DERIVATIVES, COMPOSITIONS AND USES THEREOF” (Danatlas Pharmaceuticals Co., Ltd., priority 2023, published 2026).

The target in experiment [1] is T1, WRN [UniPro: Q14191 (WRN_HUMAN), N500-C946] (Homo sapiens (Human), UniProt Q14191). The experiment can be described thus: WRN ATPase assay (ADP-Glo). In kind it is biochemical. Particulars: WRN enzymatic activity assay. On the technique in general: In ADP-Glo the light output rises with the ADP produced.
The target in experiment [2] is T1, WRN [UniPro: Q14191 (WRN_HUMAN), N500-C946]. Description: WRN unwinding assay (FORKF DNA, fluorescence). In kind it is biochemical. Particulars: Table 14.

T1 sequence (Q14191 500-946): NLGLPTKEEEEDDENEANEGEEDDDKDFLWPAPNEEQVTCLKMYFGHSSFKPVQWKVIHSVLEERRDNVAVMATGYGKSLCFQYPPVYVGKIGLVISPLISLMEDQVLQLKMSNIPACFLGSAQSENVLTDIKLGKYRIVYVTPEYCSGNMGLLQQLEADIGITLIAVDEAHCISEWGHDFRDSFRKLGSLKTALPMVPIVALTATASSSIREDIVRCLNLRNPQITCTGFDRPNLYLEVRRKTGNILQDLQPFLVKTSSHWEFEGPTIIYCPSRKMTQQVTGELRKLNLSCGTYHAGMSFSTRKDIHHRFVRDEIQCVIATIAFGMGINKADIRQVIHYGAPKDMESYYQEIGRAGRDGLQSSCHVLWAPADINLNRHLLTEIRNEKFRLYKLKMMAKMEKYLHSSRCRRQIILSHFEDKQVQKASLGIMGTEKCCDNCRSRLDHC

The IC50 is the point on the concentration scale where inhibition reaches its midpoint. The low end stands for inhibition by little substance, the high end for a need for much substance. Turning to `CCc1c(N2CCN(C(=O)CNC(=O)c3cnc4c(ccn4C)c3O)CC2)c(=O)n2nc(C3=CCOCC3)nc2n1CC(=O)Nc1ccc(C(F)(F)F)cc1Cl` [Example 120, N-(2-(4-(4-(2-((2-Chloro-4-(trifluoromethyl)phenyl)amino)-2-oxoethyl)-2-(3,6-dihydro-2H-pyran-4-yl)-5-ethyl-7-oxo-4,7-dihydro-[1,2,4]triazolo[1,5-a]pyrimidin-6-yl)piperazin-1-yl)-2-oxoethyl)-4-hydroxy-1-methyl-1H-pyrrolo[2,3-b]pyridine-5-carboxamide], the half-maximal inhibitory concentration (IC50) in experiment [1] is 100 to 1000 nM; in experiment [2], below 100 nM.

In the case of `CCc1c(N2CCN(C(=O)CNC(=O)c3c[nH]cn3)CC2)c(=O)n2nc(C3=CCOCC3)nc2n1CC(=O)Nc1ccc(C(F)(F)F)cc1Cl` [Example 121, N-(2-(4-(4-(2-((2-Chloro-4-(trifluoromethyl)phenyl)amino)-2-oxoethyl)-2-(3,6-dihydro-2H-pyran-4-yl)-5-ethyl-7-oxo-4,7-dihydro-[1,2,4]triazolo[1,5-a]pyrimidin-6-yl)piperazin-1-yl)-2-oxoethyl)-1H-imidazole-4-carboxamide], the 50% inhibitory concentration (IC50) in experiment [1] and in experiment [2] was below 100 nM throughout.

On to `CCc1c(N2CCN(C(=O)CNC(=O)c3cc(C)ns3)CC2)c(=O)n2nc(C3=CCOCC3)nc2n1CC(=O)Nc1ccc(C(F)(F)F)cc1Cl` [Example 122, N-(2-(4-(4-(2-((2-Chloro-4-(trifluoromethyl)phenyl)amino)-2-oxoethyl)-2-(3,6-dihydro-2H-pyran-4-yl)-5-ethyl-7-oxo-4,7-dihydro-[1,2,4]triazolo[1,5-a]pyrimidin-6-yl)piperazin-1-yl)-2-oxoethyl)-3-methylisothiazole-5-carboxamide], for which the IC50 in experiment [1] and in experiment [2] was below 100 nM throughout.

For the compound `CCc1c(N2CCN(C(=O)CNC(=O)c3ncco3)CC2)c(=O)n2nc(C3=CCOCC3)nc2n1CC(=O)Nc1ccc(C(F)(F)F)cc1Cl` [Example 123, N-(2-(4-(4-(2-((2-Chloro-4-(trifluoromethyl)phenyl)amino)-2-oxoethyl)-2-(3,6-dihydro-2H-pyran-4-yl)-5-ethyl-7-oxo-4,7-dihydro-[1,2,4]triazolo[1,5-a]pyrimidin-6-yl)piperazin-1-yl)-2-oxoethyl)oxazole-2-carboxamide], the IC50 in experiment [1] and in experiment [2] was below 100 nM each time.

On to `CCc1c(N2CCN(C(=O)CNC(=O)c3c(F)cccc3F)CC2)c(=O)n2nc(C3=CCOCC3)nc2n1CC(=O)Nc1ccc(C(F)(F)F)cc1Cl` [Example 124, N-(2-(4-(4-(2-((2-Chloro-4-(trifluoromethyl)phenyl)amino)-2-oxoethyl)-2-(3,6-dihydro-2H-pyran-4-yl)-5-ethyl-7-oxo-4,7-dihydro-[1,2,4]triazolo[1,5-a]pyrimidin-6-yl)piperazin-1-yl)-2-oxoethyl)-2,6-difluorobenzamide], for which the IC50 in experiment [1] and in experiment [2] was below 100 nM each time.

For the compound `CCc1c(N2CCN(C(=O)CNC(=O)c3c(Cl)cccc3Cl)CC2)c(=O)n2nc(C3=CCOCC3)nc2n1CC(=O)Nc1ccc(C(F)(F)F)cc1Cl` [Example 125, 2,6-Dichloro-N-(2-(4-(4-(2-((2-chloro-4-(trifluoromethyl)phenyl)amino)-2-oxoethyl)-2-(3,6-dihydro-2H-pyran-4-yl)-5-ethyl-7-oxo-4,7-dihydro-[1,2,4]triazolo[1,5-a]pyrimidin-6-yl)piperazin-1-yl)-2-oxoethyl)benzamide], the values for the IC50 in experiment [1] and in experiment [2] were 100 to 1000 nM and below 100 nM, respectively.

For `CCc1c(N2CCN(C(=O)CNC(=O)c3cc(Cl)ccc3Cl)CC2)c(=O)n2nc(C3=CCOCC3)nc2n1CC(=O)Nc1ccc(C(F)(F)F)cc1Cl` [Example 126, 2,5-Dichloro-N-(2-(4-(4-(2-((2-chloro-4-(trifluoromethyl)phenyl)amino)-2-oxoethyl)-2-(3,6-dihydro-2H-pyran-4-yl)-5-ethyl-7-oxo-4,7-dihydro-[1,2,4]triazolo[1,5-a]pyrimidin-6-yl)piperazin-1-yl)-2-oxoethyl)benzamide], the IC50 in experiment [1] and in experiment [2] was below 100 nM each time.

As for `CCc1c(N2CCN(C(=O)CNC(=O)c3ncc(C)s3)CC2)c(=O)n2nc(C3=CCOCC3)nc2n1CC(=O)Nc1ccc(C(F)(F)F)cc1Cl` [Example 128, N-(2-(4-(4-(2-((2-Chloro-4-(trifluoromethyl)phenyl)amino)-2-oxoethyl)-2-(3,6-dihydro-2H-pyran-4-yl)-5-ethyl-7-oxo-4,7-dihydro-[1,2,4]triazolo[1,5-a]pyrimidin-6-yl)piperazin-1-yl)-2-oxoethyl)-5-methylthiazole-2-carboxamide], the figures for the IC50 in experiment [1] and in experiment [2] were 100 to 1000 nM and below 100 nM, respectively.

Take `CCc1c(N2CCN(C(=O)CNC(=O)c3cscn3)CC2)c(=O)n2nc(C3=CCOCC3)nc2n1CC(=O)Nc1ccc(C(F)(F)F)cc1Cl` [Example 129, N-(2-(4-(4-(2-((2-Chloro-4-(trifluoromethyl)phenyl)amino)-2-oxoethyl)-2-(3,6-dihydro-2H-pyran-4-yl)-5-ethyl-7-oxo-4,7-dihydro-[1,2,4]triazolo[1,5-a]pyrimidin-6-yl)piperazin-1-yl)-2-oxoethyl)thiazole-4-carboxamide]: the 50% inhibitory concentration (IC50) in experiment [1] and in experiment [2] was below 100 nM each time.

For `CCc1c(N2CCN(C(=O)CNC(=O)c3cc(C)no3)CC2)c(=O)n2nc(C3=CCOCC3)nc2n1CC(=O)Nc1ccc(C(F)(F)F)cc1Cl` [Example 130, N-(2-(4-(4-(2-((2-Chloro-4-(trifluoromethyl)phenyl)amino)-2-oxoethyl)-2-(3,6-dihydro-2H-pyran-4-yl)-5-ethyl-7-oxo-4,7-dihydro-[1,2,4]triazolo[1,5-a]pyrimidin-6-yl)piperazin-1-yl)-2-oxoethyl)-3-methylisoxazole-5-carboxamide], the half-inhibitory concentration (IC50) in experiment [1] and in experiment [2] was below 100 nM throughout.

Take `CCc1c(N2CCN(C(=O)CNC(=O)c3cnc(C)s3)CC2)c(=O)n2nc(C3=CCOCC3)nc2n1CC(=O)Nc1ccc(C(F)(F)F)cc1Cl` [Example 131, N-(2-(4-(4-(2-((2-Chloro-4-(trifluoromethyl)phenyl)amino)-2-oxoethyl)-2-(3,6-dihydro-2H-pyran-4-yl)-5-ethyl-7-oxo-4,7-dihydro-[1,2,4]triazolo[1,5-a]pyrimidin-6-yl)piperazin-1-yl)-2-oxoethyl)-2-methylthiazole-5-carboxamide]: the IC50 is 100 to 1000 nM in experiment [1] and below 100 nM in experiment [2].

With `CCc1c(N2CCN(C(=O)CNC(=O)c3ccc(F)c(F)c3)CC2)c(=O)n2nc(C3=CCOCC3)nc2n1CC(=O)Nc1ccc(C(F)(F)F)cc1Cl` [Example 132, N-(2-(4-(4-(2-((2-Chloro-4-(trifluoromethyl)phenyl)amino)-2-oxoethyl)-2-(3,6-dihydro-2H-pyran-4-yl)-5-ethyl-7-oxo-4,7-dihydro-[1,2,4]triazolo[1,5-a]pyrimidin-6-yl)piperazin-1-yl)-2-oxoethyl)-3,4-difluorobenzamide], the IC50 in experiment [1] and in experiment [2] was below 100 nM in each case.

On to `CCc1c(N2CCN(C(=O)CNC(=O)c3ncccc3F)CC2)c(=O)n2nc(C3=CCOCC3)nc2n1CC(=O)Nc1ccc(C(F)(F)F)cc1Cl` [Example 133, N-(2-(4-(4-(2-((2-Chloro-4-(trifluoromethyl)phenyl)amino)-2-oxoethyl)-2-(3,6-dihydro-2H-pyran-4-yl)-5-ethyl-7-oxo-4,7-dihydro-[1,2,4]triazolo[1,5-a]pyrimidin-6-yl)piperazin-1-yl)-2-oxoethyl)-3-fluoropicolinamide], for which the half-inhibitory concentration (IC50) in experiment [1] and in experiment [2] was below 100 nM in each case.
